Article PMC9243584, “Population Pharmacokinetics of Colistin Sulfate in Critically Ill Patients: Exposure and Clinical Efficacy” (Frontiers in Pharmacology, 2022)
Structures can show the parent of a compound that is named as a salt. Where two headings read alike, the source gives them in different places. Positions of bridges follow the written chain, without caps; N, C: chain ends. Non-standard residues stand in square brackets, D forms with d. Residues, ends and D or L forms follow the SMILES beside them. *: point of attachment. X1 = CC[C@H](C)CCCCC(=O)*; Dab = NCC[C@H](N)C(=O)O

Legend:
CRO = settings: retrospective study, Chinese patients with CRO infections, median daily dose 1.72 mg/kg; ref Lu et al. (2021); cited from earlier work
Source text: (§1) It should be noted that the currently used colistin sulfate in China was reapproved for clinical use by the Chinese National Medical Products Administration (NPMA) in 2018. Thus, modern pharmacological data including the clinical efficacy and side effects have not been reported. […] The clinical efficacy of colistin sulfate in the current study was similar to the efficacy of polymyxin B reported by [Lu et al. (2021]), who performed a retrospec ...

[1] = ref Han et al., 2022; cited from earlier work
Source text: as §1, with “... || Nephrotoxicity is the main toxicity of concern with the treatment of polymyxins. However, it is amazing that no patient developed colistin sulfate-related nephrotoxicity in our study. […] Considering that polymyxin B and colistin have very similar molecular structures and PK characteristics, it is reasonable to conclude that the safety threshold of nephrotoxicity of colistin sulfate approaches that of polymyxin B. In the current study, most patient ...” for “...”

[2] = design: method as in 2 sources, one per row (each row's own in cited_ref): ref Yu et al., 2021 ||| ref Wang et al., 2020; settings: cited from earlier work
[3] = test system: isolates with lower MIC values (≤2 μg/ml); settings: isolates with MIC ≤2 μg/ml for both compounds; ref Sader et al., 2015; cited from earlier work
Source text: as §1

[4] = Population pharmacokinetic modeling (NONMEM) of intravenous colistin sulfate from plasma concentrations in critically ill patients; assay type: in vivo, human
Source text: This retrospective, observational study was designed in accordance with the Declaration of Helsinki and was approved by the Ethical Committees of the First Affiliated Hospital of Wenzhou Medical University, China ([2022]036). Adult patients receiving colistin sulfate for confirmed multi-resistant Gram-negative bacterial infections from January 2020 to December 2021 at the First Affiliated Hospital of Wenzhou Medical University were selected. The inclusion criteria were as follows: a) ≥18 years of age; b) receiving colistin sulfate (Shanghai New Asia Pharmaceuticals, Shanghai, China) for at least 3 days; and c) at least one plasma concentration of colistin was collected.
The decision to administer colistin sulfate and its dosing regimen (dose amount, dosing interval, ways of administration, and treatment duration) was made by the attending physician. A loading dose of 1 million IU and a daily dose of 1.5 million IU divided into 2–3 times (maintenance dose) administered using an intravenous drip was recommended by the label sheet of colistin sulfate. In addition, for patients with pulmonary infection, inhalation of colistin sulfate (250,000 IU q12 h) was combinedly used; for patients with intracranial infection, colistin sulfate (50,000 IU q24 h) administered by the intraventricular/intrathecal (IVT/IT) route was combinedly used.
Plasma samples of colistin sulfate were collected after reaching the steady-state (attained after at least six doses). Dates and exact time of colistin sulfate administration and plasma sample collection were able to be indexed from the medical records. Plasma samples were separated by centrifugation for 5 min at 15,000 rpm immediately after sampling. The quantification of plasma concentration of colistin sulfate was performed using a validated high-performance liquid chromatography-tandem mass spectrometry assay ([Gobin et al., 2010]). The calibration ranges for colistin were 0.1–20 μg/ml. The method validations including calibration curve, selectivity, accuracy, precision, matrix effect, recovery, and stability met the requirement of FDA principles.
PopPK analysis was performed using the nonlinear mixed-effects modeling program NONMEM (version 7.4, Icon Development Solutions, Ellicott City, MD, USA) and Pirana (version 2.9.7). R (version 3.6.0) and Xpose (version 4.3.2) software packages were applied to generate diagnostic plots.
One- and two-compartment structural models with first-order elimination were explored for the concentration–time profiles of colistin sulfate. Between-subject variability (BSV) was assessed using an exponential function. Residual variability was assessed using additive, proportional, or combined (additive plus proportional) error models. The base model was selected based on the visual inspection of diagnostic plots and goodness-of-fit criteria, including precision and plausibility of parameter estimation and improvement of the objective function value (OFV).
Relationships between individual empirical Bayesian estimates of PK parameters and patient covariates were examined visually. Covariates were included using a stepwise forward selection process until no further decrease in OFV was observed. All of the significant covariates were then incorporated into the basic model to construct a full model. The included covariates were further assessed using backward elimination. The additional criterion for retaining the covariate in the final model was the decrease in the unexplained BSV and increase in PK parameter estimate precision.
Goodness-of-fit plots, nonparametric bootstrap, and visual predictive check were performed to evaluate the final model and parameter estimates. A nonparametric bootstrap procedure was conducted to assess the performance and stability of the final model. Random sampling with replacement was utilized to generate 1,000 replicate datasets using the individual as the sampling unit. […]

[5] = Acute kidney injury (RIFLE criteria) and colistin sulfate-related nephrotoxicity (Naranjo criteria); assay type: in vivo, human; settings: 42 patients, not considered colistin's nephrotoxicity by Naranjo criteria
Procedure: Acute kidney injury (AKI) during the treatment of colistin sulfate was assessed using RIFLE criteria. AKI was defined as a 1.5-fold or more increase in serum creatinine and/or a decrease in the glomerular filtration rate (GFR) of 25% or more ([Han et al., 2022]). The definition of nephrotoxicity caused by colistin sulfate was further confirmed using the Naranjo criteria.

[6] = critically ill patients, ref Cheah et al., 2015, cited from earlier work

Molecule	patients who achieved clinical success (CRO)	Cmin to prevent polymyxin B-related nephrotoxicity [1]	median CL ([2]; Chinese adult patients, ref Wang et al., 2020)	CL ([2]; mean ± SD, adult critically ill patients, 112 concentrations from 32 patients, ref Yu et al., 2021, SD)	V ([2]; one-compartment model, adult critically ill patients, ref Yu et al., 2021)	potency compared with polymyxin B [3]	CrCL on CL (θ1) ([4]; final model, covariate coefficient in CL = 0.994 + 0.525×CrCL/66.47)	TVV (typical value of volume of distribution) ([4]; final model, one-compartment)	TVCL (typical value of clearance) ([4]; final model, one-compartment, CL = 0.994 + 0.525×CrCL/66.47)	clearance ([4]; human, plasma, iv, base model (Table S1), read-out: TVCL (converted))	Vd ([4]; human, plasma, iv, base model (Table S1), read-out: TVV)	Vd ([4]; human, plasma, iv, final model, one-compartment, read-out: TVV (typical value of volume of distribution))	clearance ([4]; human, plasma, iv, mean ± SD across all 42 patients, SD, read-out: CL, individual empirical Bayesian estimate (converted))	AUC(0-t) ([4]; human, plasma, iv, mean ± SD, MAP Bayesian estimate per patient with the final PK model, SD, read-out: AUC (AUC0-24 at steady state, AUC0-24,ss))	patients who developed AKI during the treatment [5]	plasma unbound fraction [6]	plasma unbound fraction ([6]; listed as colistin)
polymyxin B sulfate	57.6%	below 3.13 mg/L	1.78 L/h	1.75 L/h	20.5 L	–	–	–	–	–	–	–	–	–	–	–	–
CC[C@H](C)CCCCC(=O)N[C@@H](CCN)C(=O)N[C@H](C(=O)N[C@@H](CCN)C(=O)N[C@H]1CCNC(=O)[C@H]([C@@H](C)O)NC(=O)[C@H](CCN)NC(=O)[C@H](CCN)NC(=O)[C@H](CC(C)C)NC(=O)[C@@H](CC(C)C)NC(=O)[C@H](CCN)NC1=O)[C@@H](C)O [colistin sulfate] (X1-[Dab]T[Dab][Dab][Dab][dL]L[Dab][Dab]T; lactam 4-C)	–	–	–	–	–	slightly greater potency than polymyxin B	0.525	20.7 L	0.994 L/h	27.2 mL/min	20.6 L	20.7 L	29 mL/min	39400 ± 14500 ng·h/mL	two	0.5	about 0.5
